Assay results from US8496928B2, “Method for preventing and treating cardiovascular diseases with BRCA1” (priority 2008, dated 2013).

Assays:
Format in all cases: cell-based, human
[1] = tested on: HUVECs; assay: Matrigel tube formation assay; settings: TNFα 20 ng/ml
Procedure: (§1) In FIG. 24A ad-null or ad-BRCA1 infected cells were trypsinized and seeded in the presence and absence of TNFα (20 ng/ml) on coated inserts and a colorimetric assay was performed after 24 hours. Migration was calculated as a percentage of ad-null controls. (n=4, **p<0.01). In FIG. 24B, ad-null or ad-BRCA1 infected HUVECs were seeded onto matrigel in the presence or absence of TNFα (20 ng/ml). Images were taken 5 hours after seeding (original magnification 20×). In FIG. 24C data was semi-quantitatively analyzed by counting tubular structures in four fields per group. Data is presented as mean±SD (n=3 in triplicate, *p<0.05, **p<0.01). HUVECs infected with ad-null or ad-BRCA1 were treated for 24 hours with TNFα (20 ng/ml). VCAM1 (FIG. 24D, FIG. 24E), ICAM1 (FIG. 24F, FIG. 24G) and E-selectin (FIG. 24H, FIG. 24I) protein and transcript expression were determined in cell extracts via western blots and real-time PCR, respectively. GAPDH was used as a loading control for western blots and as a housekeeping gene for real-time PCR. Data are expressed as mean±SD (n=3, **p<0.01).
HUVEC-associated angiogenesis was measured with the In Vitro Angiogenesis Assay Kit from Chemicon. […] Tube formation was quantified by counting the number of tubes, branching points and network of tubes in randomly captured microscopic fields and by scoring the values for each type of structure. […]

[2] = tested on: VCAM1, ICAM1 and E-selectin; assay: VCAM1, ICAM1 and E-selectin expression in HUVECs, real-time PCR and western blot; settings: ad-null treated HUVECs, TNFα 20 ng/ml 24 hours
Procedure: as §1
(§2) Western blot analysis was performed according to standard procedures. Proteins from whole cell lysates of HUVECs were resolved on SDS-polyacrylamide gels and transferred to nitrocellulose membranes (Bio-Rad). Membranes were probed with primary antibodies from Santa Cruz (BRCA1), Cell Signaling (p53, p21, Ser1177-phospho-eNOS, Akt, Ser473-phospho-Akt, cleaved caspase-3), Chemicon (GADD45a, GAPDH) and BD (eNOS). Immunoblots were incubated with the appropriate horseradish peroxidase-associated secondary antibodies before signals were visualized by chemiluminescence via the ECL detection system (GE Healthcare).
(§3) Total RNA extracted from HUVECs were reverse transcribed for quantitative assessment of VCAM1, ICAM1, E-selectin and VEGFa expressions by real-time PCR using the primer pairs listed in Table 4.
PCR reactions were performed on the ABI PRISM 7900HT system (Applied Biosystems) with GAPDH acting as the housekeeping control.

[3] = tested on: eNOS, Akt, VEGFa; assay: eNOS/phospho-eNOS, Akt/phospho-Akt and VEGFa expression in HUVECs; settings: TNFα treatment
Procedure: FIGS. 28A through 28E show eNOS/phospho-eNOS, Akt/phospho-Akt and VEGFa protein and RNA expression. Total protein and RNA were extracted from ad-null or ad-BRCA1 infected HUVECs treated thereafter with TNFα for 24 hours. As shown in FIGS. 28A and 28C, TNFα markedly elevated eNOS protein levels in BRCA1-overexpressing cells. […] Data are presented as mean±SEM of three independent experiments (*p<0.05, **p<0.01).
BRCA1 also promoted eNOS, phospho-eNOS, phospho-Akt and VEGFa expression. Since eNOS is essential for endothelial function, the potential regulation of endothelial nitric oxide synthase (eNOS) expression and phosphorylation by BRCA1 was examined via western blot analysis.
as §2, with “Immunoblots were incubated with the appropriate horseradish peroxidase-associated secondary antibodies before signals were visualized by chemiluminescence via the ECL detection system (GE Healthcare).” left out
as §3

TNFα
capacity to form vessel-like tubular structures [1]: reduced | E-selectin transcript upregulation [2]: 200 times | ICAM1 transcript upregulation [2]: 400 times | VCAM1 transcript upregulation [2]: 1500 times | eNOS protein levels [3]: significant reduction
